Entries after “also recorded” stand apart in the source; their conditions may differ.
Test system: PARP2
Assay: live-cell PARP-2 trapping assay (GFP-PARP2 at laser micro-irradiation sites)
Assay type: cell-based, human
Settings: U2OS cells transfected with GFP-PARP2; veliparib 10 μM, talazoparib 100 nM; images 1 and 15 minutes after irradiation
Procedure: U2OS cells were seeded onto 4-well Nunc Lab-Tek chambers (Thermo Fisher Scientific) in normal DMEM. Cells were cultured over night at 37° C. and transfected with a GFP-tagged PARP2 plasmid using Lipofectamine. 24 h after transfection, the cells were imaged using the Zeiss AxioObserver Z1 confocal spinning-disk microscope equipped with a sCMOS ORCA Flash 4.0 camera (Hamamatsu). Live-cell imaging experiments were performed with C-Apo 63× water immersion objective lens. During this time, the cells were maintained in Leibovitz's L-15 media (Gibco), supplemented with 10% FBS, at 37° C. in the absence of CO2. […] DNA damage was induced along a line of 88 pixels that is exposed for 400 msec with 20% laser power of a 355 nm laser operated through a single-point scanning head (UGA-42 firefly, Rapp OptoElectronics).
The accumulation of fluorophore-tagged proteins at laser micro-irradiation sites was followed for 15-30 minutes. […] The accumulation of fluorophore-tagged proteins at micro-irradiation sites was quantified using a custom-made macro in Fiji/ImageJ. The damage region of interest was selected, the mean fluorescent intensity of the nucleus was determined, and the background signal was subtracted. The recruitment was calculated via the following formula: (damage region (t)−background signal (t))/(nucleus intensity (t)−background (t))

Row | SMILES | recruitment / retention of GFP-PARP2 at laser micro-irradiation damage sites
1 | Cn1ncnc1[C@H]1c2n[nH]c(=O)c3cc(F)cc(c23)N[C@@H]1c1ccc(F)cc1 [talazoparib] | enhanced retention of GFP-tagged PARP2 at induced DNA lesions; also recorded: enhanced retention of PARP2 at induced damage sites
2 | C[C@]1(c2nc3c(C(N)=O)cccc3[nH]2)CCCN1 [veliparib] | overall less PARP2 recruitment to the DNA lesions; also recorded: less recruitment of PARP2 to the damage site
